From US12123051B2, “Nucleic acid ratio determination” (priority 2017, dated 2024)
Values after ≈ are worked out from the molar mass of the structure shown. Where two headings read alike, the source gives them in different places.

Legend:
Format in all cases: cell-based
[1] = test system: Chlamydia trachomatis strains 1-5; test: Minimum inhibitory concentration (MIC) of antibiotics, predetermined by standard procedures
Protocol: After infection, there was no change of media at the 4 h time point. Once in an exponential growth phase, 20 hours PI, cells were treated with a single dose of different antibiotics. […] Strains used for this treatment protocol were Strain 1) serovar D lab strain (UW-3/Cx), Strain 2) serovar L2 wild type lab strain (434/Bu), Strain 3) serovar L2 lab created mutant strain, resistant to trimethoprim, Strain 4) serovar L2 lab created mutant strain, resistant to Spectinomycin and Strain 5) serovar L2 lab created mutant strain, resistant to Rifampicin. MIC for all serovars and each antibiotic was predetermined, using standard procedures documented in literature, and listed in the table below. […] Strains 1, 2, 3 and 4 are also susceptible to rifampicin, whilst strain 5 is resistant to that same antibiotic. Samples were then incubated at 37° C. with 5% CO2 and harvested at 1 hour PT, using SPG buffer and extracted immediately. Two biological replicates were obtained for each condition.

[2] = test system: Chlamydia trachomatis (serovar D) in HEp-2 cells; test: Antibiotic susceptibility testing by VITA PCR, azithromycin, Treatment Protocol B; conditions: Example 7: 0.128 μg/mL at 24 h PI
Protocol: The levels of GAT and NED were estimated and used to calculate VITA Index.
(§1) The ΔCt was calculated as the differences between the Ct values of the NED and GAT1/2 signals.
To measure NED, another region of Chlamydia DNA was co-amplified in the same RT-PCR using primers targeting a region of genomic DNA which is not transcribed. The levels of GAT and NED were estimated and used to calculate VITA Index.
as §1

[3] = test system: Chlamydia trachomatis strains 1-5 in HEp-2 cells; conditions: 1 hour PT
Protocol: After infection, there was no change of media at the 4 h time point. Once in an exponential growth phase, 20 hours PI, cells were treated with a single dose of different antibiotics. […] Strains used for this treatment protocol were Strain 1) serovar D lab strain (UW-3/Cx), Strain 2) serovar L2 wild type lab strain (434/Bu), Strain 3) serovar L2 lab created mutant strain, resistant to trimethoprim, Strain 4) serovar L2 lab created mutant strain, resistant to Spectinomycin and Strain 5) serovar L2 lab created mutant strain, resistant to Rifampicin. […] Samples were then incubated at 37° C. with 5% CO2 and harvested at 1 hour PT, using SPG buffer and extracted immediately. Two biological replicates were obtained for each condition.
The following example analyses the susceptibility of bacteria to a given drug, by estimation of the change of GAT levels relative to NED in TNA samples. These were then compared between samples treated with antibiotic and not treated (control). […] Treatment was as described in example 1, Treatment E (1.1.5). To obtain a measure GAT, Chlamydia DNA and RNA was amplified by RT-PCR using primers targeting two different locations of the omp1 gene and its transcripts. To measure NED, another region of Chlamydia DNA was co-amplified in the same RT-PCR using primers targeting a region of genomic DNA which is not transcribed. The levels of GAT and NED were estimated and used to calculate VITA Index. Further to this the VITA Indices of treated and untreated samples were used to calculate the ΔVITA Ratio.
Partzyme oligonucleotides, Reporter substrates and PCR primers used for amplification and detection of GAT1, GAT2 and NED were as per example 9 (9.1, 9.2 and 9.3 respectively). The RT-PCR conditions used were as described in Example 9 (9.5) and reactions contained either 5 μL of TNA template (1/1000 dilution) or no target (dH2O).
(§2) Chlamydia DNA and RNA from 2 GAT regions and one NED region, were co-amplified and detected in single RT-PCR from TNA extracted from chlamydia cultures. These cultures were treated with antibiotic or left untreated (control) at an exponential growth phase and harvested at 1 hour post treatment. […] The ΔCt was calculated as the differences between the Ct values of the NED and GAT1/2 signals.
The following example analyses the susceptibility of bacteria to a given drug, by estimation of the change of GAT levels relative to NED in TNA samples. These were then compared between samples treated with antibiotic and not treated (control). […] To obtain a measure GAT, Chlamydia DNA and RNA was amplified by RT-PCR using primers targeting two different locations of the omp1 gene and its transcripts. To measure NED, another region of Chlamydia DNA was co-amplified in the same RT-PCR using primers targeting a region of genomic DNA which is not transcribed. The levels of GAT and NED were estimated and used to calculate VITA Index. Further to this the VITA Indices of treated and untreated samples were used to calculate the ΔVITA.
as §2, with “antibiotic (Rifampicin)” for “antibiotic”, “(control) during the” for “(control) at an”, “at one” for “at 1”

[4] = test system: Chlamydia trachomatis strain 1 and strain 5 in HEp-2 cells; test: Antibiotic susceptibility testing by VITA PCR, rifampicin, short incubation, Treatment Protocol C; conditions: for ΔVITA Ratio A/B: 0.256 μg/mL; for VITA Index: plus antibiotic 0.256 μg/mL
Protocol: After infection, there was no change of media at the 4 hour time point, essentially creating an unsynchronised population, which would be more similar to in vivo conditions. Once at an exponential growth phase, 20 hours PI, treatment was applied. This was achieved by replacing the DMEM for each well, with addition of either i) no antibiotic, or ii) antibiotic (0.256 μg/mL of Rifampicin). Samples were then either incubated at 37° C. with 5% CO2, and harvested after 5 minutes PT; or incubated at room temperature and harvested after 15 minutes PT. SPG buffer was used for harvest and TNA was extracted immediately after. Strains used for this treatment protocol were Strain 1) serovar D lab strain (UW-3/Cx), susceptible to rifampicin, and Strain 5) serovar L2 lab created mutant strain, resistant to Rifampicin.
The following example estimates the change of GAT levels relative to NED in TNA samples extracted from HEp-2 cells which had been infected with Chlamydia trachomatis strain 1 and strain 5 (serovar D lab strain and serovar L2 strain resistant to rifampicin respectively). TNA was extracted from cells, which had been either treated with the antibiotic Rifampicin at a concentration of 0.256 μg/mL, or not treated (control), at 20 hours post infection whilst in an exponential growth phase. Treatment was as described in example 1, Treatment C (1.1.3). To obtain a measure GAT, Chlamydia DNA and RNA was amplified by RT-PCR using primers targeting two different locations of the omp1 gene and its transcripts. To measure NED, another region of Chlamydia DNA was co-amplified in the same RT-PCR using primers targeting a region of genomic DNA which is not transcribed. The levels of GAT and NED were estimated and used to calculate VITA Index. Further to this the VITA Indices of treated and untreated samples were used to calculate the ΔVITA Ratio.
The reactions contained either 5 μL of TNA template (1/1000 dilution) or no target (dH2O).
Chlamydia DNA and RNA from 2 regions within the omp1 gene and transcripts (GAT1 and GAT2), and one NED region, were co-amplified and detected in single RT-PCR from TNA extracted from chlamydia cultures. These cultures were treated with antibiotic or left untreated (control) at an exponential growth phase. They were incubated for either 5 minutes at 37° C. (FIG. 7D) or 15 minutes at room temperature (FIG. 7E). […] The results were then compared between no treatment reactions (control) and those treated with antibiotic at each time point (FIGS. 7D-E).

[5] = Strain 1, serovar D lab strain (UW-3/Cx)
[6] = Strain 2, serovar L2 wild type lab strain (434/Bu)
[7] = Strain 3, serovar L2 mutant resistant to trimethoprim
[8] = Strain 4, serovar L2 mutant resistant to Spectinomycin
[9] = Strain 5, serovar L2 mutant resistant to Rifampicin
[10] = Resistant strain (strain 5), 5 min incubation PT at 37° C. with 5% CO2
[11] = Resistant strain (strain 5), 15 min incubation PT at room temperature
[12] = Susceptible strain (strain 1), 5 min incubation PT at 37° C. with 5% CO2
[13] = Susceptible strain (strain 1), 15 min incubation PT at room temperature

CC[C@H]1OC(=O)[C@H](C)[C@@H](O[C@H]2C[C@@](C)(OC)[C@@H](O)[C@H](C)O2)[C@H](C)[C@@H](O[C@@H]2O[C@H](C)C[C@H](N(C)C)[C@H]2O)[C@](C)(O)C[C@@H](C)CN(C)[C@H](C)[C@@H](O)[C@]1(C)O [Azithromycin]
Minimum inhibitory concentration (MIC), antibiotic dose [1, 5]: 0.032 µg/mL (≈ 0.0427 µM)
Minimum inhibitory concentration (MIC), antibiotic dose [1, 6]: 0.032 µg/mL (≈ 0.0427 µM)
Minimum inhibitory concentration (MIC), antibiotic dose [1, 7]: 0.016 µg/mL (≈ 0.0214 µM)
Minimum inhibitory concentration (MIC), antibiotic dose [1, 8]: 0.016 µg/mL (≈ 0.0214 µM)
Minimum inhibitory concentration (MIC), antibiotic dose [1, 9]: 0.032 µg/mL (≈ 0.0427 µM)
Susceptibility according to the MIC analysis ([1]; all strains used): susceptible
ΔVITA A/B (no antibiotic / plus antibiotic) ([2]; 1 h PT): 3.77
ΔVITA A/B (no antibiotic / plus antibiotic) ([2]; 6 h PT): 2.12

C[C@H]1c2cccc(O)c2C(=O)C2=C(O)[C@]3(O)C(=O)C(C(N)=O)=C(O)[C@@H](N(C)C)[C@@H]3[C@@H](O)[C@@H]21 [Doxycycline]
Minimum inhibitory concentration (MIC), antibiotic dose [1, 5]: 0.128 µg/mL (≈ 0.288 µM)
Minimum inhibitory concentration (MIC), antibiotic dose [1, 6]: 0.064 µg/mL (≈ 0.144 µM)
Minimum inhibitory concentration (MIC), antibiotic dose [1, 7]: 0.032 µg/mL (≈ 0.072 µM)
Minimum inhibitory concentration (MIC), antibiotic dose [1, 8]: 0.064 µg/mL (≈ 0.144 µM)
Minimum inhibitory concentration (MIC), antibiotic dose [1, 9]: 0.064 µg/mL (≈ 0.144 µM)
ΔVITA Ratio A/B ([3]; Table 12b: Strain 1, 0.256 μg/mL): 1.48
VITA Index ([3]; Table 12b: Strain 1, plus antibiotic 0.256 μg/mL): 2.80
ΔVITA Ratio A/B ([3]; Table 12b: Strain 2, 0.256 μg/mL): 1.24
VITA Index ([3]; Table 12b: Strain 2, plus antibiotic 0.256 μg/mL): 3.92
ΔVITA Ratio A/B ([3]; Table 12b: Strain 3, 0.256 μg/mL): 1.32
VITA Index ([3]; Table 12b: Strain 3, plus antibiotic 0.256 μg/mL): 5.64
ΔVITA Ratio A/B ([3]; Table 12b: Strain 5, 0.256 μg/mL): 1.43
VITA Index ([3]; Table 12b: Strain 5, plus antibiotic 0.256 μg/mL): 5.01

CO[C@H]1/C=C/O[C@@]2(C)Oc3c(C)c(O)c4c(O)c(c(/C=N/N5CCN(C)CC5)c(O)c4c3C2=O)NC(=O)/C(C)=C\C=C\[C@H](C)[C@H](O)[C@@H](C)[C@@H](O)[C@@H](C)[C@H](OC(C)=O)[C@@H]1C [Rifampicin]
Minimum inhibitory concentration (MIC), antibiotic dose [1, 5]: 0.008 µg/mL (≈ 0.00972 µM)
Minimum inhibitory concentration (MIC), antibiotic dose [1, 6]: 0.004 µg/mL (≈ 0.00486 µM)
Minimum inhibitory concentration (MIC), antibiotic dose [1, 7]: 0.004 µg/mL (≈ 0.00486 µM)
Minimum inhibitory concentration (MIC), antibiotic dose [1, 8]: 0.004 µg/mL (≈ 0.00486 µM)
Minimum inhibitory concentration (MIC), antibiotic dose [1, 9]: 8.192 µg/mL (≈ 9.95 µM)
ΔVITA Ratio A/B [4, 10]: 1.07
ΔVITA Ratio A/B [4, 11]: 0.91
VITA Index [4, 10]: 11.18
VITA Index [4, 11]: 11.41
ΔVITA Ratio A/B [4, 12]: 1.90
ΔVITA Ratio A/B [4, 13]: 1.80
VITA Index [4, 12]: 4.69
VITA Index [4, 13]: 4.41
ΔVITA Ratio A/B ([3]; Table 13: Strain 1, 0.256 μg/mL): 3.54
VITA Index ([3]; Table 13: Strain 1, plus antibiotic 0.256 μg/mL): 1.17
ΔVITA Ratio A/B ([3]; Table 13: Strain 2, 0.256 μg/mL): 2.93
VITA Index ([3]; Table 13: Strain 2, plus antibiotic 0.256 μg/mL): 1.66
ΔVITA Ratio A/B ([3]; Table 13: Strain 3, 0.256 μg/mL): 4.70
VITA Index ([3]; Table 13: Strain 3, plus antibiotic 0.256 μg/mL): 1.58
ΔVITA Ratio A/B ([3]; Table 13: Strain 4, 0.256 μg/mL): 5.86
VITA Index ([3]; Table 13: Strain 4, plus antibiotic 0.256 μg/mL): 1.68
ΔVITA Ratio A/B ([3]; Table 13: Strain 5 (Rifampicin resistant), 0.256 μg/mL): 1.06
VITA Index ([3]; Table 13: Strain 5 (Rifampicin resistant), plus antibiotic 0.256 μg/mL): 6.71
